# Patent publication US20230095509A1, “NON-FIBRILLAR HEMOGLOBIN S OLIGOMERS AND METHODS TO IDENTIFY MODULATORS OF HEMOGLOBIN S POLYMERIZATION” (REGENTS OF THE UNIVERSITY OF MINNESOTA, priority 2021, published 2023)
# Experiments:
# [1] = system: RBC from individuals with SCD (genotype HbSS); assay: Microfluidic measurement of oxygen-dependent sickle blood flow; format: cell-based, human; details: for area under the velocity response curve (AUC) relative to control / deceleration rate of blood during deoxygenation: 500 μM, RBC at 25% hematocrit, 7 individuals with SCD, 1 hour at 37° C.; for deceleration rate of blood during deoxygenation: FIG. 8C
# Procedure: We treated RBC suspensions at 25% hematocrit from 7 individuals with SCD (genotype HbSS) with 500 μM of our hit compounds or voxelotor (positive control) and quantified the flow in our microfluidic platform under well-defined oxygen tensions. (FIG. 8A) Representative image of blood flowing in microfluidic device with overlay of arrows representing the velocities of features between frames using the Lucas Kanade Tomasi algorithm. (FIG. 8B) Area under velocity response curve (AUC) comparison among treated samples compared to the vehicle control. (FIG. 8C) Deceleration rate comparison among treated samples compared to the vehicle control. All statistics were performed using a one-tailed Wilcoxon signed rank test, a=0.05, * p-value<0.05, **p-value<0.01
# (FIG. 9A) Raw oxygen and velocity recordings during microfluidic experiment. Arrow indicates the change in the steady state mean velocity after introducing hypoxic conditions on the microfluidic chip. (FIG. 9B) The on-chip oxygen concentration is cycled seven times during the experiment between 21% 02 and hypoxia. Changes in the velocity during each cycle are normalized to the average velocity of the initial 21% cycle. (FIG. 9C) Shaded region represents the area under the curve (AUC) using the steady state mean velocity changes at each oxygen concentration. This measurement quantifies the overall oxygen response of the blood by accounting for both the magnitude of the steady state mean velocity drop as well as the persistence of oxygen-dependence at higher oxygen concentrations (FIG. 9D) Blood deceleration is measured by a segmented moving mean of the velocity response during the hypoxic transition using Matlab signal processing.
# Blood Sample Collection and Preparation for Microfluidic Assays: Sickle cell patient blood samples were collected under protocols approved by the Institutional Review Boards at Children's Minnesota Hospital, the University of Minnesota Medical Center, and the University of Minnesota. Patient blood samples were collected into sodium citrate vacutainer tubes and stored at 4° C. The samples were prepared for the microfluidic experiments by washing twice with Dulbecco's phosphate buffered saline (DPBS) after centrifugation for 5 minutes at 400g. Packed red blood cells were then isolated by centrifuging the washed samples for 10 minutes at 400g and removing all remaining DPBS. The packed red blood cells were added to fresh DPBS to achieve a target hematocrit of 25%. Each compound of interest was added to the sample to reach a target concentration of 500 uM and incubated at 37° C. for 1 hour before being run on the microfluidic device. The compounds were dissolved in DMSO at a concentration of 100 mM and stored at −20° C. or −80° C. prior to use.
# Microfluidic Setup and Experimental Protocol: A previously described (Valdez et al., 2019, APL Bioengineering 3, 046101; Geisness et al., 2022, Haematologica, 107(6); Hansen et al., 2020, Br J Haematol, (2019). Br J Haematol. 188(6): 985-993), polydimethylsiloxane (PDMS) microfluidic device replicating the geometry of the post-capillary venules was used to study blood rheological behavior. […] The microfluidic channels were primed by flowing a 2% bovine serum albumin (BSA) in DPBS solution through the device to passivate the PDMS surface. Blood was then added to the inlet port and flowed through the device under a constant driving pressure to achieve an initial velocity of […] (PCD-15PSIG, Alicat Scientific). At the bifurcation, blood is diverted to two […] square channels—a bypass channel and an experimental channel. Separate gas inlets supply oxygen to each of the two blood channels independently via diffusion from the overlaid gas layer. The bypass channel is supplied with air and maintained under normoxic conditions. […]
# [2] = biological target: deoxy-HbS oligomers (sickle hemoglobin, HbS) (Homo sapiens, UniProt P68871+P69905, E7V); assay: Dynamic light scattering (DLS) of deoxy-HbS oligomers at sub-nucleating concentration; format: biochemical; details: HbS 25 μM; for size of deoxyHbS oligomers (DLS effective diameter) relative to control: hit compounds 100 μM, two hours at room temperature, degassed with argon, FIG. 4C
# Procedure: (FIG. 4A) Pilot screening with LOPAC library. Compounds that reduced the FRET efficiency below 3SD (black line) were selected for further characterization. […] Fluorescently labeled HbS samples were plated in a 1536 plate and treated separately with DMSO or the three hit compounds, chlormezanone, gabazine, and phosphoramidon disodium, in a dose-dependent manner from 0.1 to 1000 μM for 2 hours at room temperature and then vacuum degassed for 10 minutes, and then donor lifetimes were measured using a fluorescence plate reader. […] HbS samples (25 μM) were incubated separately with hit compounds (100 μM) or DMSO only for two hours at room temperature and degassed with argon for five minutes, and then DLS measurement were taken at room temperature. […] Effect of hit compounds on polymerization of deoxyHbS in high potassium phosphate buffer. Curves represent growth of polymer as a function of time in the presence or absence of drug.
SMILES,area under the velocity response curve (AUC) relative to control [1],deceleration rate of blood during deoxygenation [1],size of deoxyHbS oligomers (DLS effective diameter) relative to control [2],"modification of the hemoglobin ([1]; 500 μM at 25% hematocrit, assuming complete RBC partitioning and 30-36 g/dl intracellular hemoglobin)","mean oligomer size of deoxyHbS (DLS effective diameter) ([2]; degassed with argon 5 minutes, room temperature, FIG. 1A)"
CN1C(=O)CCS(=O)(=O)C1c1ccc(Cl)cc1 (stereo not shown) [chlormezanone],significantly reduced the mean AUC,significantly reduced the deceleration rate,significantly decreased the oligomer size,,
COc1ccc(-c2ccc(=N)n(CCCC(=O)O)n2)cc1 [gabazine],insignificant trend towards reduced AUC,significantly reduced the deceleration rate,significantly decreased the oligomer size,,
CC(C)n1nccc1-c1ncccc1COc1cccc(O)c1C=O [voxelotor],significantly reduced the mean AUC,significantly reduced the deceleration rate,,35-45%,dramatically reduced the mean oligomer size
